What was measured:
Histone deacetylase = type: cell-based, Homo sapiens; conditions: hela
Description: Inhibition of HDAC in human HeLa cell extracts

Acetylcholinesterase = Acetylcholinesterase (Electrophorus electricus, UniProt O42275); test: Inhibition of electric eel AChE
Cholinesterase = Cholinesterase (Equus caballus, UniProt P81908); test: Inhibition of equine serum BChE; type: cell-free
[1] = Selectivity index, ratio of IC50 for equine serum BChE to IC50 for electric eel AChE

Sequence of Acetylcholinesterase (O42275 whole entry): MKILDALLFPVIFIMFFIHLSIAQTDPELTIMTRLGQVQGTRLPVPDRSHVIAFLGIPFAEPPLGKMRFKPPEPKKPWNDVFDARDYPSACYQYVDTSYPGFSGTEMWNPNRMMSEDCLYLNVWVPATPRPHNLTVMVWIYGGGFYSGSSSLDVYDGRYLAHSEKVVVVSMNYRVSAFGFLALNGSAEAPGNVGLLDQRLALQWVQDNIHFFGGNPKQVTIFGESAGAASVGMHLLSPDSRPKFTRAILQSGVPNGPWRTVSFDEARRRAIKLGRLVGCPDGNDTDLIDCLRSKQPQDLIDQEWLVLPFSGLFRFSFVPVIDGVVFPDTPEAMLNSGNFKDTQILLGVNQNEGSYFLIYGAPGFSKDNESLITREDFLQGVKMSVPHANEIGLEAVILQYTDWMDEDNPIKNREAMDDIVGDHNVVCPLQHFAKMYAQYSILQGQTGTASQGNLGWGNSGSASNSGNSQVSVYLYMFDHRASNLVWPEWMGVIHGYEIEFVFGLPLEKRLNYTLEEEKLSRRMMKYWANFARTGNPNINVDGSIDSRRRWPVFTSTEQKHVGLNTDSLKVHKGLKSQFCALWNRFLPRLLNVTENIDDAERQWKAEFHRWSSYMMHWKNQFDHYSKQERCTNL
Sequence of Cholinesterase (P81908 whole entry): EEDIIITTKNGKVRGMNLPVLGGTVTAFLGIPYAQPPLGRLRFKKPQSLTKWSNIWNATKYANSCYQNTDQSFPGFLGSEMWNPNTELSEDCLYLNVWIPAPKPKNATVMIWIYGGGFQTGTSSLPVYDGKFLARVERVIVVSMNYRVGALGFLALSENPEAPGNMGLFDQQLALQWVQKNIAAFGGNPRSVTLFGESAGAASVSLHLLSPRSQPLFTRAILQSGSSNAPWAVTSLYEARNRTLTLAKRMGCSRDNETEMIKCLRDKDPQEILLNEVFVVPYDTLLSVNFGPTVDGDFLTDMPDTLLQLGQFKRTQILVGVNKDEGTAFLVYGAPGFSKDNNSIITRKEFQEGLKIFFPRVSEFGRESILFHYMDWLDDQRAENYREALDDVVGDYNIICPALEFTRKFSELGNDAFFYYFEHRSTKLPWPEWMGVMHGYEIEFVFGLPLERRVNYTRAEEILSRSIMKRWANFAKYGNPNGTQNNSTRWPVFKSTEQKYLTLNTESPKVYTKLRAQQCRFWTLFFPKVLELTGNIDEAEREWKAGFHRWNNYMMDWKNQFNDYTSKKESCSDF

| SMILES | IC50 (Histone deacetylase) [µM] | IC50 (Acetylcholinesterase; read-out: IC50) [µM] | IC50 (Cholinesterase; read-out: IC50) [µM] | IC50 (Cholinesterase) | Ratio IC50 [1] | IC50 (Acetylcholinesterase) |
| --- | --- | --- | --- | --- | --- | --- |
| O=C(NO)c1ccc(C(=O)NCC2CCN(Cc3ccccc3)CC2)cc1 | 0.14 | 39.7 | 3.28 | – | – | – |
| COc1cc(CCC(=O)NO)ccc1C(=O)NCC1CCN(Cc2ccccc2)CC1 | 0.17 | 6.89 | – | Not Active | > 10 | – |
| Nc1ccccc1NC(=O)/C=C/c1cccc(C(=O)NCC2CCN(Cc3ccccc3)CC2)c1 | 1.62 | – | – | Not Active | – | Not Active |
| O=C(CCCCCC(=O)NCC1CCN(Cc2ccccc2)CC1)NO | > 10 | 32.8 | – | Not Active | – | – |
| O=C(/C=C/c1ccc(C(=O)NCC2CCN(Cc3ccccc3)CC2)cc1)NO | 0.28 | 8.18 | – | Not Active | > 10 | – |
| Nc1ccccc1NC(=O)CCCCCC(=O)NCC1CCN(Cc2ccccc2)CC1 | > 10 | 7.06 | 6.19 | – | – | – |
| Nc1ccccc1NC(=O)CCc1ccc(C(=O)NCC2CCN(Cc3ccccc3)CC2)cc1 | 0.46 | 9.13 | 13.4 | – | – | – |
| O=C(NO)c1cccc(S(=O)(=O)NCC2CCN(Cc3ccccc3)CC2)c1 | 6.8 | 19.2 | – | Not Active | – | – |
| Nc1ccccc1NC(=O)c1cccc(S(=O)(=O)NCC2CCN(Cc3ccccc3)CC2)c1 | 1.28 | 7.41 | 5.23 | – | – | – |
| O=C(NO)c1ccc(S(=O)(=O)NCC2CCN(Cc3ccccc3)CC2)cc1 | 0.45 | 3.22 | – | Not Active | > 10 | – |
| COc1cc(CCC(=O)Nc2ccccc2N)ccc1C(=O)NCC1CCN(Cc2ccccc2)CC1 | > 10 | 31.3 | 10.6 | – | – | – |
| O=C(CCCCCCCC(=O)NCC1CCN(Cc2ccccc2)CC1)NO | 0.43 | 26.2 | 13.7 | – | – | – |
| O=C(CCc1ccc(C(=O)NO)cc1)NCC1CCN(Cc2ccccc2)CC1 | > 10 | – | – | Not Active | – | Not Active |
| O=C(/C=C/c1ccc(C(=O)NO)cc1)NCC1CCN(Cc2ccccc2)CC1 | 2.1 | 4.07 | – | Not Active | > 10 | – |
| O=C(NO)c1cccc(C(=O)NCC2CCN(Cc3ccccc3)CC2)c1 | 0.8 | – | – | Not Active | – | Not Active |
| Nc1ccccc1NC(=O)c1cccc(C(=O)NCC2CCN(Cc3ccccc3)CC2)c1 | 2.13 | 32.6 | 7.96 | – | – | – |

| SMILES | IC50 (Histone deacetylase) [µM] | IC50 (Acetylcholinesterase; read-out: IC50) [µM] | IC50 (Cholinesterase; read-out: IC50) [µM] | IC50 (Cholinesterase) | Ratio IC50 [1] | IC50 (Acetylcholinesterase) |
| --- | --- | --- | --- | --- | --- | --- |
| O=C(CCc1cccc(C(=O)NCC2CCN(Cc3ccccc3)CC2)c1)NO | 0.47 | – | – | Not Active | – | Not Active |
| O=C(CCCCCCC(=O)NCC1CCN(Cc2ccccc2)CC1)NO | 0.59 | – | 1.62 | – | – | Not Active |
| Nc1ccccc1NC(=O)c1ccc(S(=O)(=O)NCC2CCN(Cc3ccccc3)CC2)cc1 | > 10 | 0.49 | – | Not Active | > 102 | – |
| Nc1ccccc1NC(=O)CCc1cccc(C(=O)NCC2CCN(Cc3ccccc3)CC2)c1 | 1.2 | 9.97 | 9.49 | – | – | – |
| O=C(CCc1ccc(C(=O)NCC2CCN(Cc3ccccc3)CC2)cc1)NO | 1 | – | – | Not Active | – | Not Active |
| Nc1ccccc1NC(=O)c1ccc(CNCC2CCN(Cc3ccccc3)CC2)cc1 | > 10 | 9.84 | 12.6 | – | – | – |
| Nc1ccccc1NC(=O)c1ccc(/C=C/C(=O)NCC2CCN(Cc3ccccc3)CC2)cc1 | > 10 | 2.12 | 15.6 | – | > 10 | – |
| Nc1ccccc1NC(=O)CCCCCCCC(=O)NCC1CCN(Cc2ccccc2)CC1 | 1.14 | 11.5 | 13.8 | – | – | – |
| COc1cc(/C=C/C(=O)Nc2ccccc2N)ccc1C(=O)NCC1CCN(Cc2ccccc2)CC1 | 1.25 | 8.89 | 6.56 | – | – | – |
| O=C(/C=C/c1cccc(C(=O)NCC2CCN(Cc3ccccc3)CC2)c1)NO | 0.067 | 14.6 | – | Not Active | – | – |
| O=C(NO)c1ccc(CNCC2CCN(Cc3ccccc3)CC2)cc1 | 1.42 | 6.03 | 13.2 | – | – | – |
| Nc1ccccc1NC(=O)c1ccc(CCC(=O)NCC2CCN(Cc3ccccc3)CC2)cc1 | > 10 | 12.4 | – | Not Active | – | – |
| Nc1ccccc1NC(=O)/C=C/c1ccc(C(=O)NCC2CCN(Cc3ccccc3)CC2)cc1 | 0.18 | 13.8 | – | Not Active | – | – |
| Nc1ccccc1NC(=O)CCCCCCC(=O)NCC1CCN(Cc2ccccc2)CC1 | > 10 | – | – | Not Active | – | Not Active |
| COc1cc(/C=C/C(=O)NO)ccc1C(=O)NCC1CCN(Cc2ccccc2)CC1 | 0.02 | 24.6 | 25.2 | – | – | – |

From ChEMBL document CHEMBL5223174, “Design, synthesis, and biological evaluation of novel N-Benzyl piperidine derivatives as potent HDAC/AChE inhibitors for Alzheimer's disease” (Bioorg Med Chem, 2023)
